pIC50: −log10 of the molar value.
Experiments:
[1] = target: recombinant human farnesyl transferase (Homo sapiens, UniProt P49354+P49356); assay: In vitro inhibition of ras farnesyl transferase; format: biochemical; details: concentration of test compound giving 50% inhibition of FTase, Table 1, read-out: IC50 (inhibition of RAS farnesylation)
Description: In vitro inhibition of ras farnesyl transferase
The assay was conducted as described in Pompliano, et. al., Biochemistry 31, 3800 (1992) with the exception of utilizing recombinant human farnesyl transferase in place of the partially purified bovine enzyme described therein.
*(IC50 is the concentration of the test compound which gives 50%
inhibition of FTase under the described assay conditions.

[2] = system: RAS farnesylation in the v-ras cell line; assay: In vivo ras farnesylation assay (inhibition of RAS farnesylation in the v-ras cell line); format: cell-based; details: 4 h at 37° C. before labelling, additional 20 h, Table 2
Description: In vivo ras farnesylation assay
The cell line used in this assay was the v-ras line, which expressed viral Ha-ms p21. The assay was performed essentially as described in DeClue, J. E. et. al., Cancer Research 51, 712-717, (1991). Cells in 10 cm dishes at 50-75% confluency were treated with the test compound (final concentration of solvent, methanol or dimethyl sulfoxide, was 0.1%). After 4 hours at 37° C., the cells were labelled in 3 ml methionine-free DMEM supplemented with 10% regular DMEM, 2% fetal bovine serum and 400 μCi[^35 S]methionine (1000 Ci/mmol). After an additional 20 hours, the cells were lysed in 1 ml lysis buffer (1% NP40/20 mM HEPES, pH 7.5/5 mM Mg/Cl2 /1mM DTT/10 μg/ml aprotinen/2 μg/ml leupeptin/2 μg/ml antipain/0.5 mM PMSF) and the lysates cleared by centrifugation at 100,000×g for 45 minutes. Aliquots of lysates containing equal numbers of acid-precipitable counts were bought to 1 ml with IP buffer (lysis buffer lacking DTT) and immunoprecipitated with the ras-specific monoclonal antibody Y13-259 (Furth, M. E. et. al., J. Virol. 43, 294-304, (1982)). Following a 2 hour antibody incubation at 4° C., 200 μl of a 25% suspension of protein A-Sepharose coated with rabbit anti rat IgG was added for 45 minutes. The immunoprecipitates were washed four times with IP was buffer ([…] HEPES, pH 7.5/1 mN EDTA/1% Triton X-100.0.5% deoxycholate/0.1%/SDS.0.1M NaCl) boiled in SDS-Page sample buffer and loaded on 13% acrylamide gels. When the dye front reached the bottom, the gel was fixed, soaked in Enlightening, dried and autoradiographed. The intensities of the bands corresponding to farnesylated and nonfarnesylated ras proteins were compared to determine the percent inhibition of farnesyl transfer to protein.

[3] = Observation on the isolated TFA salt (hygroscopicity, stability in solution); format: physicochemical

pIC50 [1]	SMILES	pIC50 [2]	also measured
7.74	C=CC[C@H](OC[C@@H](NC[C@@H](N)CS)[C@@H](C)CC)C(=O)N[C@@H](CCO)C(=O)O		
	CC[C@H](C)[C@@H](CO[C@@H](Cc1ccccc1)C(=O)N[C@@H](CCS(C)(=O)=O)C(=O)OC(C)C)NC[C@@H](N)CS [2(S)-[2(S)-[2(R)-Amino-3-mercapto]-propylamino-3(S)-methyl]pentyloxy-3-phenylpropionyl-methionine sulfone isopropyl ester]	7.00	
8.66	CC[C@H](C)[C@@H](CO[C@@H](Cc1ccccc1)C(=O)N[C@@H](CCS(C)(=O)=O)C(=O)O)NC[C@@H](N)CS [2(S)-[2(S)-[2(R)-Amino-3-mercapto]propylamino-3(S)-methyl]-pentyloxy-3-phenylpropionyl-methionine sulfone]		
	C=CC[C@H](OC[C@@H](NC[C@@H](N)CS)[C@@H](C)CC)C(=O)N[C@H]1CCOC1=O [2(S)-[2(S)-[2(R)-Amino-3-mercapto]propylamino-3(S)-methyl]-pentyloxy-4-pentenoyl-homoserine lactone]	5.00	
8.15	CCC[C@H](OC[C@@H](NC[C@@H](N)CS)[C@@H](C)CC)C(=O)N[C@@H](CCO)C(=O)O [2(S)-[2(S)-[2(R)-Amino-3-mercapto]propylamino-3(S)-methyl]-pentyloxy-pentanoyl-homoserine]		
6.01	CC[C@H](C)[C@@H](CS(=O)(=O)[C@@](C)(Cc1ccccc1)C(=O)N[C@@H](CCO)C(=O)O)NC[C@@H](N)CS [2(S)-[2(S)-[2(R)-Amino-3-mercapto]propylamino-3(S)-methyl]pentyl-sulfonyl-2-methyl-3-phenylpropionyl-homo-serine]		
	CC[C@H](C)[C@@H](CO[C@@H](CC(C)C)C(=O)N[C@H]1CCOC1=O)NC[C@@H](N)CS [2(S)-[2(S)-[2(R)-Amino-3-mercapto]propylamino-3(S)-methyl]pentyloxy4-methylpentanoyl-homoserine lactone]	5.00	
	CC[C@H](C)[C@@H](CO[C@@](C)(Cc1ccccc1)C(=O)N[C@H]1CCOC1=O)NC[C@@H](N)CS [2(S)-[2(S)-[2(R)-Amino-3-mercapto]propylamino-3(S)-methyl]pentyloxy-2-methyl-3-phenylpropionyl-homoserine lactone]	4.30	
8.15	CC[C@H](C)[C@@H](CO[C@@](C)(Cc1ccccc1)C(=O)N[C@@H](CCO)C(=O)O)NC[C@@H](N)CS [2(S)-[2(S)-[2(R)-Amino-3-mercapto]propylamino-3(S)-methyl]pentyloxy-2-methyl-3-phenylpropionyl-homoserine]		
8.85	CC[C@H](C)[C@@H](CO[C@H](C(=O)N[C@@H](CCO)C(=O)O)C(C)C)NC[C@@H](N)CS [2(S)-[2(S)-[2(R)-Amino-3-mercapto]propylamino-3(S)-methyl]pentyloxy-3-methylbutanoyl-homoserine]		
7.77	CC[C@H](C)[C@@H](CO[C@H](C(=O)N[C@@H](CCO)C(=O)O)C(C)c1ccccc1)NC[C@@H](N)CS (stereo partly drawn) [2(S)-[2(S)-[2(R)-Amino-3-mercapto]propylamino-3(S)-methyl]pentyloxy-3-phenylbutanoyl-homoserine]		
	CC[C@H](C)[C@@H](CO[C@@H](Cc1ccccc1)C(=O)N[C@H]1CCOC1=O)NC[C@@H](N)CS [2(S)-[2(S)-[2(R)-Amino-3-mercapto]propylamino-3(S)-methyl]pentyloxy-3-phenylpropionyl-homoserine lactone]	5.60	hygroscopicity [3]: hygroscopic; stability (disulphide formation) ([3]; left in solution and exposed to air): prone to disulphide formation if left in solution and exposed to air
8.30	CC[C@H](C)[C@@H](CO[C@@H](Cc1ccccc1)C(=O)N[C@@H](CCO)C(=O)O)NC[C@@H](N)CS [2(S)-[2(S)-[2(R)-Amino-3-mercapto]propylamino-3(S)-methyl]pentyloxy-3-phenylpropionyl-homoserine]		
	CC[C@H](C)[C@@H](CO[C@@H](Cc1ccccc1)C(=O)N[C@@H](CCSC)C(=O)OC)NC[C@@H](N)CS [2(S)-[2(S)-[2(R)-Amino-3-mercapto]propylamino-3(S)-methyl]pentyloxy-3-phenylpropionyl-methionine methyl ester]	7.00	
	CC[C@H](C)[C@@H](CO[C@@H](Cc1ccccc1)C(=O)N[C@@H](CCS(C)(=O)=O)C(=O)OC)NC[C@@H](N)CS [2(S)-[2(S)-[2(R)-Amino-3-mercapto]propylamino-3(S)-methyl]pentyloxy-3-phenylpropionyl-methionine sulfone methyl ester]	7.00	
8.40	CC[C@H](C)[C@@H](CO[C@@H](Cc1ccccc1)C(=O)N[C@@H](CCSC)C(=O)O)NC[C@@H](N)CS [2(S)-[2(S)-[2(R)-Amino-3-mercapto]propylamino-3(S)-methyl]pentyloxy-3-phenylpropionyl-methionine]		
7.72	CC[C@H](C)[C@@H](CO[C@@H](CC(C)C)C(=O)N[C@@H](CCO)C(=O)O)NC[C@@H](N)CS [2(S)-[2(S)-[2(R)-Amino-3-mercapto]propylamino-3(S)-methyl]pentyloxy-4-methylpentanoyl-homoserine]		
	CCC[C@H](OC[C@@H](NC[C@@H](N)CS)[C@@H](C)CC)C(=O)N[C@H]1CCOC1=O [2(S)-[2(S)-[2(R)-Amino-3-mercapto]propylamino-3(S)-methyl]pentyloxy-pentanoyl-homoserine lactone]	5.00	
6.62	CC[C@H](C)[C@@H](CS[C@@](C)(Cc1ccccc1)C(=O)N[C@@H](CCO)C(=O)O)NC[C@@H](N)CS [2(S)-[2(S)-[2(R)-Amino-3-mercapto]propylamino-3(S)-methyl]pentylthio-2-methyl-3-phenylpropionyl-homoserine]		

— patent publication US5686472A, “Inhibitors of farnesyl-protein transferase” (Merck & Co., Inc., priority 1993, dated 1997)
